From patent publication US8557796B2, “Substituted 1-oxa-2,8-diaza-spiro [4,5] dec-2-ene derivatives and related treatment methods” (Gruenenthal GmbH, priority 2001, dated 2013)

Tested on: batrachotoxin (BTX) binding site (binding site 2) of the sodium channel
Assay: Bond test on the sodium channel, binding site 2 (BTX bond), [3H]-batrachotoxinin A20 α-benzoate displacement
Details: rat cerebrocortex synaptosomes

SMILES | BTX bond, 10 μM, % inhibition | BTX bond, 10 μM, % inhibition (10 µM)
O=C(NCC(c1ccccc1)c1ccccc1)C1=NOC2(CCN(S(=O)(=O)c3ccc(Cl)s3)CC2)C1 [Example 79, 8-(5-chloro-thiophene-2-sulphonyl)-1-oxa-2,8-diaza-spiro[4,5]dec-2-ene-3-carboxylic acid (2,2-diphenyl-ethyl)-amide] | 83% | –
O=C(NC1CCCC1OCc1ccccc1)C1=NOC2(CCN(S(=O)(=O)c3ccc(F)cc3)CC2)C1 (centres unmarked) [Example 199] | 67% | –
O=C(NCc1cccs1)C1=NOC2(CCN(C(=O)c3ccc(Br)cc3)CC2)C1 [Example 141] | 61% | –
Cc1ccc(S(=O)(=O)N2CCC3(CC2)CC(C(=O)N2CCN(c4ccc(C)cc4C)CC2)=NO3)cc1 [Example 33, [4-(2,4-dimethyl-phenyl)-piperazin-l-yl]-[8-(toluene-4-sulphonyl)-1-oxa-2,8-diazaspiro[4,5]dec-2-en-3-yl]methanone] | 67% | –
O=C(NCc1ccccc1)C1=NOC2(CCN(C(=O)c3ccc(F)c(Cl)c3)CC2)C1 [Example 205, 8-(3-chloro-4-fluorobenzoyl)-1-oxa-2,8-diaza-spiro[4,5]dec-2-ene-3-carboxylic acid benzylamide] | 53% | –
CCSc1ncccc1C(=O)N1CCC2(CC1)CC(C(=O)NCc1ccccc1)=NO2 [Example 115, 8-(2-ethylsulphanyl-pyridine-3-carbonyl)-1-oxa-2,8-diaza-spiro[4,5]dec-2-ene-3-carboxylic acid benzylamide] | 48% | –
O=C(NCCc1cccc(C(F)(F)F)c1)C1=NOC2(CCN(S(=O)(=O)c3ccc(F)cc3)CC2)C1 [Example 196] | 51% | –
O=C(NCc1cccs1)C1=NOC2(CCN(C(=O)c3ccccc3Cl)CC2)C1 [Example 152, 8-(2-chloro-benzoyl)-1-oxa-2,8-diaza-spiro[4,5]dec-2-ene-3-carboxylic acid (thiophen-2-ylmethyl)-amide] | 56% | –
O=C(NCC1COc2ccccc2O1)C1=NOC2(CCN(S(=O)(=O)c3cccs3)CC2)C1 (centres unmarked) [Example 21, 8-(thiophene-2-sulphonyl)-1-oxa-2,8-diaza-spiro[4,5]dec-2-ene-3-carboxylic acid (2,3-dihydro-benzo[1,4]dioxin-2-ylmethyl)-amide] | 63% | –
O=C(NCc1ccccc1)C1=NOC2(CCN(C(=O)c3cccc(SC(F)F)c3)CC2)C1 [Example 180, 8-(3-difluoromethylsulphanyl-benzoyl)-1-oxa-2,8-diaza-spiro[4,5]dec-2-ene-3-carboxylic acid benzylamide] | 57% | –
CN(C)S(=O)(=O)N1CCC2(CC1)CC(C(=O)N1CCN(Cc3ccc(C(C)(C)C)cc3)CC1)=NO2 [Example 189, 3-[4-(4-tert-butyl-benzyl)-piperazine-1-carbonyl]-1-oxa-2,8-diaza-spiro[4,5]dec-2-ene-8-sulphonic acid dimethylamide] | 69% | –
O=C(NCc1cccs1)C1=NOC2(CCN(S(=O)(=O)c3ccc([N+](=O)[O-])cc3)CC2)C1 [Example 38, 8-(4-nitro-benzenesulphonyl)-1-oxa-2,8-diaza-spiro[4,5]dec-2-ene-3-carboxylic acid (thiophen-2-ylmethyl)-amide] | 65% | –
CC(NC(=O)C1=NOC2(CCN(S(=O)(=O)c3ccc(Cl)s3)CC2)C1)c1cccc2c1OCCO2 (centres unmarked) [Example 140, 8-(5-chloro-thiophene-2-sulphonyl)-1-oxa-2,8-diaza-spiro[4,5]dec-2-ene-3-carboxylic acid [1-(2,3-dihydro-benzo[1,4]dioxin-5-yl)-ethyl]-amide] | 60% | –
O=C(NCc1cccc(F)c1)C1=NOC2(CCN(S(=O)(=O)c3cccs3)CC2)C1 [Example 24, 8-(thiophene-2-sulphonyl)-1-oxa-2,8-diaza-spiro[4,5]dec-2-ene-3-carboxylic acid 3-fluorobenzylamide] | 41% | –
CCOC(=O)N1CCC(NC(=O)C2=NOC3(CCN(C(=O)C4CC4c4ccccc4)CC3)C2)CC1 (centres unmarked) [Example 55, 4-{[8-(2-phenyl-cyclopropanecarbonyl)-1-oxa-2,8-diaza-spiro[4,5]dec-2-ene-3-carbonyl]-amino}-piperidine-1-carboxylic acid ethyl ester] | 47% | –
O=C(C1=NOC2(CCN(S(=O)(=O)c3ccc(F)cc3)CC2)C1)N1CCN(C2CCCCCC2)CC1 [Example 218] | 79% | –
CCOC(=O)C1CCCCN1C(=O)C1=NOC2(CCN(S(=O)(=O)c3ccc(Cl)s3)CC2)C1 (centres unmarked) [Example 155, 1-[8-(5-chloro-thiophene-2-sulphonyl)-1-oxa-2,8-diaza-spiro[4,5]dec-2-ene-3-carbonyl]-piperidine-2-carboxylic acid ethyl ester] | 48% | –
COc1ccc(S(=O)(=O)N2CCC3(CC2)CC(C(=O)NC2CCCC2OCc2ccccc2)=NO3)cc1 (centres unmarked) [Example 169, 8-(4-methoxy-benzenesulphonyl)-1-oxa-2,8-diaza-spiro[4,5]dec-2-ene-3-carboxylic acid (2-benzyloxy-cyclopentyl)-amide] | – | 48%

SMILES | BTX bond, 10 μM, % inhibition | BTX bond, 10 μM, % inhibition (10 µM)
O=C(NCc1ccccc1F)C1=NOC2(CCN(S(=O)(=O)c3ccc(F)cc3)CC2)C1 [Example 207, 8-(4-fluoro-benzenesulphonyl)-1-oxa-2,8-diaza-spiro[4,5]dec-2-ene-3-carboxylic acid 2 fluorobenzylamide] | 56% | –
O=C(C1=NOC2(CCN(S(=O)(=O)c3ccc(F)cc3)CC2)C1)N1CCN(CCCc2ccccc2)CC1 [Example 186, [8-(4-fluoro-benzenesulphonyl)-1-oxa-2,8-diaza-spiro[4,5]dec-2-en-3-yl]-[4-(3-phenyl-propyl)-piperazin-1-yl]-methanone] | 56% | –
Cc1ccc([N+](=O)[O-])cc1S(=O)(=O)N1CCC2(CC1)CC(C(=O)NCCN(C)C)=NO2 [Example 19, 8-(2-methyl-5-nitro-benzenesulphonyl)-1-oxa-2,8-diaza-spiro[4,5]dec-2-ene-3 carboxylic acid (2-dimethylamino-ethyl)-amide] | 66% | –
O=C(NCc1ccccc1)C1=NOC2(CCN(S(=O)(=O)c3cccc(Cl)c3)CC2)C1 [Example 210, 8-(3-chloro-benzenesulphonyl)-1-oxa-2,8-diaza-spiro[4,5]dec-2-ene-3-carboxylic acid benzylamide] | 62% | –
O=C(C1=NOC2(CCN(S(=O)(=O)c3cc(Cl)ccc3Cl)CC2)C1)N1CCN(Cc2ccccc2)CC1 [Example 209, (4-benzyl-piperazin-l-yl)-[8-(2,5-dichloro-benzenesulphonyl)-1-oxa-2,8-diaza-spiro[4,5]dec-2-en-3-yl]-methanone] | 61% | –
Cc1ccc(S(=O)(=O)N2CCC3(CC2)CC(C(=O)NCCN(C)C)=NO3)cc1 [Example 57, 8-(toluene-4-sulphonyl)-1-oxa-2,8-diaza-spiro[4,5]dec-2-ene-3-carboxylic acid (2-dimethylamino-ethyl)-amide] | 45% | –
O=C(NCc1cccs1)C1=NOC2(CCN(S(=O)(=O)c3ccccc3Cl)CC2)C1 [Example 156, 8-(2-chloro-benzenesulphonyl)-1-oxa-2,8-diaza-spiro[4,5]dec-2-ene-3-carboxylic acid (thiophen-2-ylmethyl)-amide] | 70% | –
COc1cc(OC)cc(N2CCN(C(=O)C3=NOC4(CCN(S(=O)(=O)c5ccc(Cl)s5)CC4)C3)CC2)c1 [Example 71, [8-(5-chloro-thiophene-2-sulphonyl)-1-oxa-2,8-diaza-spiro[4,5]dec-2-en-3-yl]-[4-(3,5-dimethoxy-phenyl)-piperazin-l-yl]-methanone] | 54% | –
COCCOCC(=O)N1CCC2(CC1)CC(C(=O)NCc1ccccc1)=NO2 [Example 87, 8-[2-(2-methoxy-ethoxy)-acetyl]-1-oxa-2,8-diaza-spiro[4,5]dec-2-ene-3-carboxylic acid benzylamide] | 42% | –
CN(CCCNC(=O)C1=NOC2(CCN(S(=O)(=O)c3ccc(Cl)s3)CC2)C1)c1ccccc1 [Example 89] | 81% | –
CN(C)S(=O)(=O)N1CCC2(CC1)CC(C(=O)N1CCN(Cc3ccc4ccccc4c3)CC1)=NO2 [Example 65, 3-(4-naphthalen-2-ylmethyl-piperazine-1-carbonyl)-1-oxa-2,8-diaza-spiro[4,5]dec-2-ene-8-sulphonic acid dimethylamide] | 67% | –
C=CCOC(=O)C(CC(=O)OC(C)(C)C)NC(=O)C1=NOC2(CCN(S(=O)(=O)c3cc(Cl)ccc3Cl)CC2)C1 (centres unmarked) [Example 53] | 47% | –
O=C(C1=NOC2(CCN(S(=O)(=O)c3ccc(OC(F)(F)F)cc3)CC2)C1)N(CCc1ccccc1)Cc1ccccc1 [Example 97, 8-(4-trifluoromethoxy-benzenesulphonyl)-1-oxa-2,8-diaza-spiro[4,5]dec-2-ene-3-carboxylic acid benzyl-phenethyl-amide] | 79% | –
O=C(NCc1cccs1)C1=NOC2(CCN(C(=O)c3ccc(SC(F)(F)F)cc3)CC2)C1 [Example 135, 8-(4-trifluoromethylsulphanyl-benzoyl)-1-oxa-2,8-diaza-spiro[4,5]dec-2-ene-3-carboxylic acid (thiophen-2-ylmethyl)-amide] | 85% | –
O=C(C1=NOC2(CCN(S(=O)(=O)c3ccc(Cl)s3)CC2)C1)N1CCN(c2ccc(F)cc2)CC1 [Example 91, [8-(5-chloro-thiophene-2-sulphonyl)-1-oxa-2,8-diaza-spiro[4,5]dec-2-en-3-yl]-[4-(4-fluorophenyl)-piperazin-1-yl]-methanone] | 72% | –
CC(Cc1ccc(Cl)cc1)NC(=O)C1=NOC2(CCN(S(=O)(=O)c3ccc(Cl)s3)CC2)C1 (centres unmarked) [Example 168, 8-(5-chloro-thiophene-2-sulphonyl)-1-oxa-2,8-diaza-spiro[4,5]dec-2-ene-3-carboxylic acid [2-(4-chloro-phenyl)-1-methyl-ethyl]-amide] | 69% | –
O=C(C1=NOC2(CCN(S(=O)(=O)c3cccc(C(F)(F)F)c3)CC2)C1)N1CCC(Cc2ccccc2)CC1 [Example 211, (4-benzyl-piperidin-l-yl)-[8-(3-trifluoromethyl-benzene-sulphonyl)-1-oxa-2,8-diaza-spiro[4,5]dec-2-en-3-yl]-methanone] | 48% | –
